Assay results as given in PubChem BioAssay AID2060605 (Molecular Pharmacology Branch, DTP, NCI, 2025).
“And” between values parts separate entries of the source, which are not always exact repeats. Identical values can stand only once.

Test system: 947758-054-R-J2-PDC spheroid growth, percent test/control
Experiment: Anticancer human tumor 947758-054-R-J2-PDC patient-derived colon adenocarcinoma cell line growth inhibition [CLK]
Settings: spheroids with HUVEC and MSC; for viability, T/C: stronger effect = lower value
Source text: A high-throughput screen of multi-cell type tumor spheroids was designed to identify active combinations of […] and targeted small molecules. Complex spheroids include a stromal component modeled by human endothelial cells (HUVEC) and fibroblasts modeled by human mesenchymal stem cells (MSCs). The concentration ranges selected for each drug and investigational agent were based upon clinically achievable concentrations if the clinical Cmax of the agent was known.
Compounds. The drugs and investigational agents: cirtuvivint (SM08502; NSC835563), CC-671 (NSC850746), vemurafenib (NSC761431), tapotoclax (NSC804041), sotorasib (NSC818433), adagrasib (NSC831453), MRTX-1133 (NSC836407), BAY2416964 (NSC825713), copanlisib (NSC816437), inavolisib (NSC800729), abemaciclib (NSC768073), osimertinib (NSC779217), entinostat (NSC756642), eltanexor (KPT-8602, NSC794443), venetoclax (NSC766270), ceralasertib (NSC777638), bortezomib (NSC756655), olaparib (NSC753686), talazoparib (NSC767125), alisertib (NSC759677), peposertib (NSC802822), gemcitabine (NSC613327), 5-fluorouracil (NSC19893), SN-38 (NSC673596), oxaliplatin (NSC266046), paclitaxel (NSC125973), and doxorubicin (NSC123127), were obtained from the National Cancer Institute (NCI) Developmental Therapeutics Program Chemical Repository. The FDA-approved anticancer drug set is available from the Developmental Therapeutics Program at https://dtp.cancer.gov/organization/dscb/obtaining/available plates.htm. […] The stock solutions were prepared in dimethyl sulfoxide (DMSO, Sigma-Aldrich, St. Louis, MO, cat. D2650), except for the platinum complexes which were prepared in saline (Quality Biological, Gaithersburg, MD, cat. 114-055-101), at 800-fold the tested concentration and stored at -70 degrees C prior to their use. All drugs and investigational agents were tested over a range starting from a high concentration at or near the clinical Cmax and decreasing in half-log increments. If the clinical Cmax for an agent had not been determined, the highest concentration tested was 10 microM.
Cell Culture. All cells were maintained in an incubator at 37 degrees C and 5% CO2 with 95% humidity. The PDC lines were cultured according to standard operating procedures established by the NCI PDMR. Briefly, all PDCs were thawed and cultured in Matrigel-coated flasks prepared with a working solution of 1X Ham's F-12 nutrient mix, without supplementation (Invitrogen, Waltham, MA, cat. 11765054), 100 U/mL penicillin-streptomycin (Invitrogen, cat. 15140122), and 2.5% Matrigel (Corning Inc., Corning, NY, cat. 354248) for the first three passages. The 947758-054-R-J2-PDC line was cultured in 6B/Colon 1A media, which includes advanced DMEM/F-12 (Thermo Fisher Scientific, cat. 12634028), 10 mM HEPES (Thermo Fisher Scientific, cat. 15630080), 1X GlutaMAX supplement (Thermo Fisher Scientific, cat. 35050061), 0.1 mg/mL primocin (InvivoGen, cat. ant-pm-2), 10% defined fetal bovine serum, heat inactivated (HyClone Laboratories Inc., cat. SH30070.03HI), 1.25 mM N-Acetyl-L-cysteine (Sigma-Aldrich, cat. A9165), 10 mM nicotinamide (Sigma-Aldrich, cat. N0636), 1X B-27 supplement (Thermo Fisher Scientific, cat. 17504044), 1X N-2 supplement (Thermo Fisher Scientific, cat. 17502048), and 10 microM Y-27632 dihydrochloride (Tocris Bioscience, cat. 1254). The 876862-298-R-J1-PDC was cultured in 6E media, which includes all 6B/Colon 1A media components plus 50% L-WRN conditioned media (ATCC, cat. CRL-3276), 50 ng/mL recombinant human EGF recombinant protein (hEGF; Thermo Fisher Scientific, cat. PHG0311), 10 ng/mL recombinant human fibroblast growth factor 10 (hGFG-10; PeproTech, cat. 100-26), 1 ng/mL recombinant human fibroblast growth factor 2 (hFGF-2; PeproTech, cat. 100-18B), and 1 µM prostaglandin E2 (PGE2; Tocris, cat. 2296). The 227483-062-R1-J1-PDC line was cultured in Panc media, containing all 6E components except hFGF-2, with the addition of 500 nM SB-431542 (Selleckchem, cat. S1067) and 10 nM gastrin (Tocris, cat. 3006). […]

[1] = curve of first compound, second compound 0.0316 µM
[2] = curve of first compound, second compound 0.1 µM
[3] = curve of first compound, second compound 0.316 µM
[4] = curve of first compound, second compound 1 µM
[5] = curve of first compound, second compound 3.16 µM
[6] = curve of first compound, second compound 10 µM
[7] = second compound 0.0316 µM, first compound 0.0316 µM
[8] = second compound 0.0316 µM, first compound 0.1 µM
[9] = second compound 0.0316 µM, first compound 0.316 µM
[10] = second compound 0.0316 µM, first compound 1 µM
[11] = second compound 0.1 µM, first compound 0.0316 µM
[12] = second compound 0.1 µM, first compound 0.1 µM
[13] = second compound 0.1 µM, first compound 0.316 µM
[14] = second compound 0.1 µM, first compound 1 µM
[15] = second compound 0.316 µM, first compound 0.0316 µM
[16] = second compound 0.316 µM, first compound 0.1 µM
[17] = second compound 0.316 µM, first compound 0.316 µM
[18] = second compound 0.316 µM, first compound 1 µM
[19] = second compound 1 µM, first compound 0.0316 µM
[20] = second compound 1 µM, first compound 0.1 µM
[21] = second compound 1 µM, first compound 0.316 µM
[22] = second compound 1 µM, first compound 1 µM
[23] = second compound 3.16 µM, first compound 0.0316 µM
[24] = second compound 3.16 µM, first compound 0.1 µM
[25] = second compound 3.16 µM, first compound 0.316 µM
[26] = second compound 3.16 µM, first compound 1 µM
[27] = second compound 10 µM, first compound 0.0316 µM
[28] = second compound 10 µM, first compound 0.1 µM
[29] = second compound 10 µM, first compound 0.316 µM
[30] = second compound 10 µM, first compound 1 µM
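Note: spheroids exposed to compounds for one week before readout.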
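Throughout, for viability, T/C: 100% = DMSO vehicle control wells.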

`CCN1CCN(Cc2ccc(Nc3ncc(F)c(-c4cc(F)c5nc(C)n(C(C)C)c5c4)n3)nc2)CC1` + CN1CCN(c2cc(C(=O)Nc3cc4cc(-c5cnn(C)c5)ccc4cn3)ccn2)CC1 showed an IC50 [1] of over 1000 nM, an IC50 [2] of 461 nM and an IC50 [3] of under 3.16 nM. It also gave an IC50 [4] of under 3.16 nM, an IC50 [5] of under 3.16 nM and an IC50 [6] of under 3.16 nM. It also gave a viability, T/C (second compound 0.0316 µM, first compound 0.00316 µM) of 145%, a viability, T/C (second compound 0.0316 µM, first compound 0.01 µM) of 133% and a viability, T/C [7] of 176%. The viability, T/C [8] was 245%, the viability, T/C [9] was 98.2% and the viability, T/C [10] was 46.5%. The viability, T/C (second compound 0.1 µM, first compound 0.00316 µM) was 134%, the viability, T/C (second compound 0.1 µM, first compound 0.01 µM) was 141% and the viability, T/C [11] was 105%. For the same molecule, the viability, T/C [12] was 108%, the viability, T/C [13] was 52.7% and the viability, T/C [14] was 32.8%. It also gave a viability, T/C (second compound 0.316 µM, first compound 0.00316 µM) of 4.74%, a viability, T/C (second compound 0.316 µM, first compound 0.01 µM) of 7.5% and a viability, T/C [15] of 5.93%. For the same molecule, the viability, T/C [16] was 9.21%, the viability, T/C [17] was 14.7% and the viability, T/C [18] was 13.2%. For the same molecule, the viability, T/C (second compound 1 µM, first compound 0.00316 µM) was 0.18%, the viability, T/C (second compound 1 µM, first compound 0.01 µM) was 2.83% and the viability, T/C [19] was 0.19%. It also gave a viability, T/C [20] of 0.19%, a viability, T/C [21] of 0.18% and a viability, T/C [22] of 2.66%. It also gave a viability, T/C (second compound 3.16 µM, first compound 0.00316 µM) of 0.83%, a viability, T/C (second compound 3.16 µM, first compound 0.01 µM) of 0.69% and a viability, T/C [23] of 0.21%. The viability, T/C [24] was 0.28%, the viability, T/C [25] was 2.63% and the viability, T/C [26] was 3.69%. It also gave a viability, T/C (second compound 10 µM, first compound 0.00316 µM) of 0.27%, a viability, T/C (second compound 10 µM, first compound 0.01 µM) of 1.7% and a viability, T/C [27] of 0.31%. For the same molecule, the viability, T/C [28] was 0.4%, the viability, T/C [29] was 0.75% and the viability, T/C [30] was 2.67%.

Molecule `COc1ccc([C@@H](O)c2cc(-c3ncnc4cc(N5CCOCC5)ccc34)c(F)cc2Cl)nn1` + CNC(=O)c1ccc(Nc2nc(OC3CCCC3)c3c(-c4ccc5nc(C)oc5c4)c[nH]c3n2)c(OC)c1 has an IC50 [1] of 1900 nM, an IC50 [2] of 899 nM and an IC50 [3] of 874 nM. For the same molecule, the IC50 [4] was 116 nM, the IC50 [5] was under 31.6 nM and the IC50 [6] was under 31.6 nM. The viability, T/C [7] was 82.4%, the viability, T/C [8] was 63.7% and the viability, T/C [9] was 74.7%. The viability, T/C [10] was 49.5%, the viability, T/C (second compound 0.0316 µM, first compound 3.16 µM) was 48.6% and the viability, T/C (second compound 0.0316 µM, first compound 10 µM) was 32.8%. The viability, T/C [11] was 91.8%, the viability, T/C [12] was 81.3% and the viability, T/C [13] was 62.9%. The viability, T/C [14] was 50.4%, the viability, T/C (second compound 0.1 µM, first compound 3.16 µM) was 33.8% and the viability, T/C (second compound 0.1 µM, first compound 10 µM) was 25.9%. The viability, T/C [15] was 80.1%, the viability, T/C [16] was 66.8% and the viability, T/C [17] was 58.2%. The viability, T/C [18] was 53.4%, the viability, T/C (second compound 0.316 µM, first compound 3.16 µM) was 34.6% and the viability, T/C (second compound 0.316 µM, first compound 10 µM) was 17.7%. The viability, T/C [19] was 59%, the viability, T/C [20] was 51.9% and the viability, T/C [21] was 40%. The viability, T/C [22] was 31.6%, the viability, T/C (second compound 1 µM, first compound 3.16 µM) was 24.2% and the viability, T/C (second compound 1 µM, first compound 10 µM) was 6.15%. The viability, T/C [23] was 38%, the viability, T/C [24] was 32.4% and the viability, T/C [25] was 37.6%. For the same molecule, the viability, T/C [26] was 24.1%, the viability, T/C (second compound 3.16 µM, first compound 3.16 µM) was 14.1% and the viability, T/C (second compound 3.16 µM, first compound 10 µM) was 7.87%. It also gave a viability, T/C [27] of 30.4%, a viability, T/C [28] of 31.9% and a viability, T/C [29] of 31%. For the same molecule, the viability, T/C [30] was 21.5%, the viability, T/C (second compound 10 µM, first compound 3.16 µM) was 8.56% and the viability, T/C (second compound 10 µM, first compound 10 µM) was 5.76%.

In the case of `Nc1ccn(C2OC(CO)C(O)C2(F)F)c(=O)n1` (stereo unspecified), the viability, T/C (compound 0.0316 µM) is reported as 35.4% and 24.8%, the viability, T/C (compound 0.1 µM) is reported as 9.92% and 9.41% and the viability, T/C (compound 0.316 µM) is reported as 13.3% and 10.2%. For the same molecule, the viability, T/C (compound 1 µM) was 14.8% and 12.9%, the viability, T/C (compound 3.16 µM) was 10.8% and 9.65% and the viability, T/C (compound 10 µM) was 8.94% and 10.9%. It also gave an IC50 (curve of compound) of under 31.6 nM.
